Data from article PMC9100673, “Acridine Based N-Acylhydrazone Derivatives as Potential Anticancer Agents: Synthesis, Characterization and ctDNA/HSA Spectroscopic Binding Properties” (Molecules, 2022).
pIC50: −log10 of the molar value. Blank lines part the entries; values can stand above or below the compound they belong to.

Assays:
CCD-18Co cells = assay: MTT assay, metabolic activity of CCD-18Co fibroblasts; assay type: cell-based, human; conditions: 48 h
Protocol: (§1) The effect of acridine-benzohydrazides (3a–3d) on the metabolic activity of the lung adenocarcinoma cell line (A549) and the normal colon fibroblast cell line (CCD-18Co) was evaluated using a 3-(4,5-dimethylthiazol-2-yl)-2,5-diphenyltertrazolium bromide (MTT) cell assay. This assay is based on the metabolization of yellow MTT to purple formazan crystal by mitochondrial dehydrogenases, and therefore only metabolic active cells are capable of that reaction. The CCD-18Co cell line was used as a control to check for derivatives selectivity. The doxorubicin belongs to a group of anthracyclines, which represent the chemotherapeutic regiments for the treatment of NSCLC (non-small cell lung carcinoma) even today, and acts as antineoplastic mainly by interaction with the DNA topoisomerase II and by creating DNA single- and double-strand breaks. Previous studies described detailed cytotoxic effects of doxorubicin in the human lung adenocarcinoma A549 cell line. Doxorubicin resembles our compounds in its biological action; therefore, it was employed as a positive control.
(§2) Human lung carcinoma cell line A549 and CCD-18Co colon fibroblasts were purchased from the American Type Culture Collection (ATCC, Rockville, MD, USA). The A549 cells were cultured in a complete RPMI-1640 medium (Sigma-Aldrich, St. Louis, MO, USA) and CCD-18Co cells were cultured in a minimum essential medium (MEM) (PAN-Biotech GmbH, Aidenbach, Germany) at 37 °C, 95% humidity and 5% CO2. The media were supplemented with 10% fetal bovine serum (FBS, Biosera, Nuaille, France) and antibiotics (1% Antibiotic-Antimycotic 100 × and 50 × 10^−3 g L^−1 gentamicin, Biosera). Prior to the selected treatments, cells were seeded on 6- and/or 96-well plates (TPP, Trasadingen, Switzerland) and left to settle for 24 h. The acridine compounds solutions (at concentrations ranging from 5–75 µM) were then added to cells for 24 or 48 h, and analysis was subsequently performed.
(§3) MTT assays were performed in order to evaluate changes in the metabolic activity of cells that had occurred as a consequence of treatment with the acridine compounds. A549 cells (15 × 10^3 cells/cm^2) and CCD-18Co (15.625 × 10^3 cells/cm^2) were seeded in 96-well microplates. The A549 cells were treated for 24 and 48 h, and the CCD-18Co cells were treated for 48 h with different concentrations (5, 25, 50 and 75 µM) of the derivatives. After the treatment, the MTT (3-(4,5-dimethylthiazol-2-yl)-2,5-diphenyltertrazolium bromide) solution in PBS (5 mg mL^−1) was added to each well. The reaction was stopped after 4 h incubation, and the formazan was dissolved by the addition of SDS at a final concentration of 3.3%. The absorbance of formazan (λ = 584 nm) was measured using a BMG FLUOstar Optima spectrometer (BMG Labtech GmbH, Offenburg, Germany). The results were evaluated as percentages of the absorbance of the untreated control. Results are presented as the average percentage of cells from three independent experiments. IC50 values for the derivatives were extrapolated from a sigmoidal fit (dose-response curve) to the metabolic activity data using OriginPro 8.5.0 SR1 (OriginLab Corp., Northampton, MA, USA).

A549 cells = assay: MTT assay, metabolic activity of A549 cells; assay type: cell-based, human; conditions: for pIC50: Homo sapiens
Protocol: as §1, §2, §3

melting point: 255 to 256 °C
SMILES: O=C(N/N=C/c1ccc(F)cc1)c1cccc2cc3ccccc3nc12 [7b, N′-[(E)-4-Fluorophenylmethylidene]acridine-4-carbohydrazide]

melting point: 243 to 244 °C
SMILES: O=C(N/N=C/c1ccc(Cl)cc1)c1cccc2cc3ccccc3nc12 [7c, N′-[(E)-4-Chlorophenylmethylidene]acridine-4-carbohydrazide]

melting point: 240 to 241 °C
SMILES: O=C(N/N=C/c1ccc(Br)cc1)c1cccc2cc3ccccc3nc12 [7d, N′-[(E)-4-Bromophenylmethylidene]acridine-4-carbohydrazide]

pIC50 (A549 cells; A549, 24 h): 4.25
pIC50 (A549 cells; A549, 48 h): 5.30
SMILES: COc1cccc2c1C(=O)c1c(O)c3c(c(O)c1C2=O)C[C@@](O)(C(=O)CO)C[C@@H]3O[C@H]1C[C@H](N)[C@H](O)[C@H](C)O1 [DOXO, doxorubicin, reference compound]
effect on metabolic activity of CCD-18Co cells (CCD-18Co cells; 5–75 μM tested): significantly decreased
pIC50 (CCD-18Co cells; Homo sapiens, CCD-18Co): 5.30
effect on metabolic activity of A549 cells (A549 cells; 24 h and 48 h, 5–75 μM tested): significantly decreased
